Measurements: ChEMBL document CHEMBL1268875, “Isoflavone derivatives inhibit NF-κB-dependent transcriptional activity” (Bioorg Med Chem Lett, 2010)
Calls of active or inactive are those of the source. The calls are words filed in the database; no cut-off is given here.

Experiments:
Assay type in all cases: cell-based
[1] = tested on: HCT-116; experiment: Inhibition of TNF-alpha-induced Nuclear factor-kappa-B dependent transcriptional activity in human HCT116 cells assessed normalized inhibitory ratio of at 10 uM for 12 hrs by NF-kappaB cis-acting luciferase reporter gene assay relative to untreated control
[2] = tested on: HCT-116; experiment: Inhibition of TNF-alpha-induced Nuclear factor-kappa-B-mediated CIAP2 expression in human HCT116 cells pretreated for 30 mins before stimulation with TNFalpha for 15 mins by RT-PCR
[3] = tested on: HCT-116; experiment: Inhibition of TNF-alpha-induced Nuclear factor-kappa-B-mediated CXCL1 expression in human HCT116 cells pretreated for 30 mins before stimulation with TNFalpha for 15 mins by RT-PCR
[4] = tested on: HCT-116; experiment: Inhibition of TNF-alpha-induced nuclear translocation of Nuclear factor-kappa-B in human HCT116 cells pretreated for 30 mins before stimulation with TNFalpha for 30 mins by Western blot
[5] = tested on: HCT-116; experiment: Inhibition of TNF-alpha-induced Nuclear factor-kappa-B-mediated XIAP expression in human HCT116 cells pretreated for 30 mins before stimulation with TNFalpha for 15 mins by RT-PCR

| Compound | Ratio [1] | also measured |
| --- | --- | --- |
| COc1cc(OC)c2c(=O)c(-c3ccc(Cl)cc3)coc2c1 | 0.61 | – |
| COc1cc(OC)c2c(=O)c(-c3ccc(Br)cc3)coc2c1 | 0.25 | – |
| COc1cc(OC)c2c(=O)c(-c3ccc(OC)c(OC)c3)coc2c1 | 0.19 | inhibition [2]: Active; inhibition [3]: Active; inhibition [4]: Active; inhibition [5]: Active |
| COc1ccc2c(=O)c(-c3ccccc3)coc2c1 | 0.36 | – |
| COc1ccc(-c2coc3cc(OC)c(Cl)cc3c2=O)cc1O | 0.54 | – |
| Cc1c(O)ccc2c(=O)c(-c3ccc(Cl)cc3)coc12 | 1.04 | – |
| COc1cc(OC)c2c(=O)c(-c3ccccc3Cl)coc2c1 | 0.54 | – |
| COc1ccc2c(=O)c(-c3ccccc3)coc2c1C | 0.23 | – |
| COc1ccc(-c2coc3cc(OC)c(OC)cc3c2=O)cc1OC | 0.4 | – |
| COc1ccc(-c2coc3cc(O)c(OC)cc3c2=O)cc1 | 2.37 | – |
| Cc1cc2occ(-c3ccc(Cl)cc3Cl)c(=O)c2cc1Cl | 0.27 | – |
| COc1cc2occ(-c3ccccc3Cl)c(=O)c2cc1Cl | 0.54 | – |
| COc1ccc2c(=O)c(-c3ccc(Cl)cc3)coc2c1C | 0.63 | – |
| Cc1cc2occ(-c3ccccc3)c(=O)c2cc1Cl | 0.32 | – |
| COc1ccc(-c2coc3c(C)c(OC)ccc3c2=O)cc1 | 0.62 | – |
| COc1ccc(-c2coc3cc(O)ccc3c2=O)cc1OC | 2.53 | – |
| COc1ccc(-c2coc3c(OC)c(OC)ccc3c2=O)cc1 | 0.95 | – |
| O=c1c(-c2ccc(O)cc2)coc2c(O)c(O)ccc12 | 1.22 | – |
| Cc1c(O)ccc2c(=O)c(-c3ccccc3)coc12 | 0.45 | – |
| COc1ccc2c(=O)c(-c3ccc(OC)c(OC)c3)coc2c1 | 0.45 | – |
| COc1cc(C)c2c(=O)c(-c3ccccc3)coc2c1 | 0.67 | – |
| COc1cc(O)c2c(=O)c(-c3ccc(O)cc3)coc2c1 | 0.34 | – |
| COc1cc(OC)c2c(=O)c(-c3cccc(Cl)c3)coc2c1 | 0.63 | – |
